The values that follow come from publication PMC8098127, “A new crystal form of GABARAPL2” (Acta Crystallographica. Section F, Structural Biology …, 2021).

The target of the test is T1, GABARAPL2 (Homo sapiens, UniProt P60520).
T1 construct: GST (N, cleaved yes); made in house; host or cells: E. coli BL21 (DE3)
As to the kind of experiment: Surface plasmon resonance (SPR) binding of GABARAPL2 to captured NDP52 I133W LIR peptide, steady state. The settings on record: full-length GABARAPL2 (C-terminal Phe117 present) injected over N-terminal LC-biotin peptide on streptavidin chip, BIAcore S200, 10 mM HEPES, 150 mM NaCl, 3.4 mM EDTA, 0.05% Tween pH 7.4, threefold, ten-step dilution series, injected 160 s, 800 s dissociation, steady-state fit, report point 145 s after injection. How it is done: GABARAPL2 was expressed and purified as described previously (Muhlinen et al., 2012[▸]). Briefly, Escherichia coli strain BL21 (DE3) cells were transformed with a pETM-30 plasmid harbouring the GABARAPL2 gene (Table 1 ▸). The cells were grown in 1 l Luria Broth (LB) medium supplemented with 100 mg l^−1 kanamycin at 37°C with agitation. Gene expression was induced when the cell density (OD600) reached approximately 0.6 by the addition of […] isopropyl β-D-1-thiogalactopyranoside (IPTG) for 3 h. Cell pellets were obtained by centrifugation at 5000g for 10 min and were lysed by sonication in lysis buffer (50 mM Tris pH 8.0, 150 mM NaCl, 1 mM EDTA) at 4°C. The lysate was clarified by centrifugation at 45 000g for 45 min and was filtered through a […] filter and immobilized on a column containing 1 ml Gluthathione Sepharose 4B resin (GE Life Sciences). GABARAPL2 was cleaved from the GST fusion protein on-column with 200 µg TEV protease and 0.5 mM TCEP overnight at 4°C. […]
Surface plasmon resonance (SPR) binding assays were performed using a BIAcore S200 in SPR buffer consisting of 10 mM HEPES, 150 mM NaCl, 3.4 mM EDTA, 0.05% Tween pH 7.4. […] The sensorgrams were analysed at steady state using a report point 145 s after injection, averaging the response over 5 s. […]
For orientation: In SPR one partner is held on a chip, and binding of the other changes the refractive index at the surface.

For orientation: Kd means the constant that tells how readily two partners part at equilibrium.

T1 sequence (P60520 with tags, fused parts or gaps): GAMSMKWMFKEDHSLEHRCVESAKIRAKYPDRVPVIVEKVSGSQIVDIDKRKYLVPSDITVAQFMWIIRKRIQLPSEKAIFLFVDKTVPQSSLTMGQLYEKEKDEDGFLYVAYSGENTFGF

As to `CC(C)C[C@H](NC(=O)[C@H](Cc1c[nH]c2ccccc12)NC(=O)[C@H](CC(=O)O)NC(=O)[C@H](CCC(=O)O)NC(=O)[C@H](CCC(=O)O)NC(=O)[C@H](CC(N)=O)NC(=O)[C@@H](N)CCC(=O)O)C(=O)N[C@H](C(=O)N[C@H](C(=O)N[C@H](C(=O)N[C@H](C(=O)N[C@@H](CCC(N)=O)C(=O)NCC(=O)N[C@@H](CCC(=O)O)C(=O)O)[C@@H](C)O)[C@@H](C)O)C(C)C)C(C)C` [NDP52 I133W LIR peptide, ENEEDWLVVTTQGE], the Kd came to 4.85 µM (SPR Experiment 1) and 5.07 µM (SPR Experiment 2).
